The source made the active and inactive calls. The rule behind the calls is not given here.

Data set [1] concerns the target T1, Seed linoleate 13S-lipoxygenase-1 (Glycine max) (UniProt P08170).
T1 sequence (whole entry): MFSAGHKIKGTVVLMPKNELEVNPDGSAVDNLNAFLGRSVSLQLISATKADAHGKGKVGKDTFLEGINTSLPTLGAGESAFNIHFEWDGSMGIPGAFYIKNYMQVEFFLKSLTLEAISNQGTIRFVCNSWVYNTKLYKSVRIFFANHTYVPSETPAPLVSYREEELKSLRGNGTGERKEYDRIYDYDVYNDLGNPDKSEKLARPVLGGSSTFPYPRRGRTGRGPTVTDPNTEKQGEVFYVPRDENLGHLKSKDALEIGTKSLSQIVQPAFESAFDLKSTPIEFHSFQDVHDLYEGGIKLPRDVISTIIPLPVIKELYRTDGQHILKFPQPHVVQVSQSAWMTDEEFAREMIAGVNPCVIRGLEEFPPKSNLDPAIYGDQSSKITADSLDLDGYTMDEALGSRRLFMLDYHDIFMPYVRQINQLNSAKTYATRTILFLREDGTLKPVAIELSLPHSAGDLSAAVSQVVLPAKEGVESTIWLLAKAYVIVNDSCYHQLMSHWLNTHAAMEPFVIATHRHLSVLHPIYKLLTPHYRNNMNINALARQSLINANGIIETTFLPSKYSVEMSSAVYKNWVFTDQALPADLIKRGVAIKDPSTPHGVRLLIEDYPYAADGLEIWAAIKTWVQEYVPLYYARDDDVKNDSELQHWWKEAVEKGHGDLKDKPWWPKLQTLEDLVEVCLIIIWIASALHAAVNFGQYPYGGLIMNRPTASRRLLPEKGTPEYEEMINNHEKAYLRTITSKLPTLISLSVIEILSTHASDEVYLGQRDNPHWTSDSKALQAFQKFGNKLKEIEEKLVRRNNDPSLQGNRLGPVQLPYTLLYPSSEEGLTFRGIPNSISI
Nature of the data set: Ratio of proximal to distal region oxidation by 1-lipoxygenase isolated from soybean; Ratio of proximal and distal was 95:5.

Data set [2] in a line: Partition coefficient (logP). Format: physicochemical. The settings on record: octanol/water.
In data set [3] the target is T1, Seed linoleate 13S-lipoxygenase-1 (Glycine max). Nature of the data set: Ratio of proximal to distal region oxidation by 1-lipoxygenase isolated from soybean; Ratio of proximal and distal was 25:75.
The target is the same in data set [4]. Nature of the data set: Ratio of proximal to distal region oxidation by 1-lipoxygenase isolated from soybean; Ratio of proximal and distal was 50:50.
Data set [5] shares this target. The data set can be described thus: Ratio of proximal to distal region oxidation by 1-lipoxygenase isolated from soybean; Ratio of proximal and distal was 89:11.
For data set [6] the target is unchanged. Nature of the data set: Ratio of proximal to distal region oxidation by 1-lipoxygenase isolated from soybean; Ratio of proximal and distal was 35:65.
Data set [7] shares this target.
For data set [8] the target is unchanged. The data set can be described thus: Ratio of proximal to distal region oxidation by 1-lipoxygenase isolated from soybean; Ratio of proximal and distal was 1:99.
Data set [9] has the same target. Nature of the data set: Ratio of proximal to distal region oxidation by 1-lipoxygenase isolated from soybean; Ratio of proximal and distal was 99:1.
Data set [10] shares this target. Nature of the data set: Ratio of proximal to distal region oxidation by 1-lipoxygenase isolated from soybean; Ratio of proximal and distal was 76:24.
Data set [11] shares this target. Nature of the data set: Ratio of proximal to distal region oxidation by 1-lipoxygenase isolated from soybean; Ratio of proximal and distal was 10:90.
Data set [12] shares this target. Nature of the data set: Ratio of proximal to distal region oxidation by 1-lipoxygenase isolated from soybean; Ratio of proximal and distal was 87:13.

As to `CCCCC/C=C\C/C=C\CCOC(=O)CCCCC(=O)O`, in data set [1], the Regiospecificity result is “Ratio of proximal and distal was 95:5”. As to `CCCCCCCC/C=C\C=C\[C@@H](O)CCO`, in data set [2] (read-out: logP), the logP stood at 4.41. Turning to `CCCCCCCCCC/C=C\C/C=C\CCOC(=O)CCCCC(=O)O`, in data set [3], the Regiospecificity result was “Ratio of proximal and distal was 25:75”. Regarding `CCCCCCCC/C=C\C/C=C\CCOC(=O)CCCCC(=O)O`, the Regiospecificity entry in data set [4] is “Ratio of proximal and distal was 50:50”. `[N-]=[N+]=NCC/C=C\C/C=C\CCOC(=O)COCCO`: the Regiospecificity result in data set [5] was “Ratio of proximal and distal was 89:11”. For `CCCCCCCCC/C=C\C/C=C\CCOC(=O)CCCCC(=O)O`, the Regiospecificity entry in data set [6] is “Ratio of proximal and distal was 35:65”. As to `CCCCC/C=C\C/C=C\CCCCCCCC(=O)O`, the Regiospecificity result in data set [7] was “Active”. In the case of `[N-]=[N+]=NCC/C=C/C=C/[C@@H](O)CCO`, the logP in data set [2] (read-out: logP) is 6.1. `CC(C)=CCC/C(C)=C/C/C=C\C/C=C\CCOC(=O)COCCO`: in data set [8], the Regiospecificity entry was “Ratio of proximal and distal was 1:99”. `CCCCC/C=C\C/C=C\CCOC(=O)COCCO`: in [9], the Regiospecificity result was “Ratio of proximal and distal was 99:1”.

For `CCCCCCC/C=C\C/C=C\CCOC(=O)CCCCC(=O)O`, the Regiospecificity result in data set [10] was “Ratio of proximal and distal was 76:24”. Take `CC(C)=CCC/C(C)=C/C/C=C\C=C\[C@@H](O)CCO`: the logP in data set [2] was determined as 3.7. Regarding `CCCCCCCC/C=C\C/C=C\CCOC(=O)COCCO`, the Regiospecificity entry in data set [11] was “Ratio of proximal and distal was 10:90”. As to `CCCC/C=C\C=C\[C@@H](O)CCO`, in [2] (read-out: logP), the logP was determined as 2.82. `CC(C)=CCC/C(C)=C/C/C=C\C/C=C\CCOC(=O)CCCCC(=O)O`: the Regiospecificity result in data set [8] is “Ratio of proximal and distal was 1:99”. Regarding `CCCCCC/C=C\C/C=C\CCOC(=O)CCCCC(=O)O`, the Regiospecificity result in data set [12] was “Ratio of proximal and distal was 87:13”.

For the origin of these results see ChEMBL document CHEMBL1131694, “New minimal substrate structural requirements in the enzymatic peroxidation of alkenes with soybean lipoxygenase” (Bioorg Med Chem Lett, 1999).
